Results as given in patent publication US20040110771A1, “7-(r)-aminotriazolopyrimidines, the production thereof and use of the same for combatting phytopathogenic fungi” (priority 2000, published 2004).

Columns and labels:
Format in all cases: in vivo
Septoria tritici = experiment: Protective activity against Septoria foliar blotch disease of wheat caused by Septoria tritici; details: wheat seedlings "Riband", inoculated 24 h after spraying, 2 weeks
Experimental: The active compounds were prepared separately or jointly as a 10% strength emulsion in a mixture of 70% by weight of cyclohexanone, 20% by weight of Nekanil® LN (Lutensol® AP6, wetting agent having emulsifying and dispersing action based on ethoxylated alkylphenols) and 10% by weight of Wettol® EM (nonionic emulsifier based on ethoxylated castor oil) and diluted with water to the desired concentration.
Leaves of potted wheat seedlings of the cultivar “Riband” were sprayed to runoff point with an aqueous preparation of active compound which had been prepared from a stock solution made of 10% of active compound, 85% of cyclohexanone and 5% of emulsifier. 24 hours after the spray coating had dried on, they were inoculated with an aqueous spore suspension of Septoria tritici. The suspension contained 2.0×10^6 spores/ml. The test plants were then placed in a greenhouse at 18-22° C. and a relative atmospheric humidity of close to 100%. After 2 weeks, the extent of the development of the disease was determined visually in % infection of the entire leaf area.

[1] = tested on: Blumeria graminis forma specialis tritici; experiment: Activity against mildew of wheat caused by Blumeria graminis forma specialis tritici; details: wheat seedlings "Kanzler", dusted with spores 24 h after spraying, 7 days
Procedure, shortened: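 Protective test: Blumeria graminis f. sp. tritici spores dusted onto cv. Kanzler wheat seedling leaves 24 h after spray deposit of aqueous compound preparation had dried. After 7 days in greenhouse (20-24° C., 60-90% relative humidity), infection estimated by eye as % of total leaf area.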

Pyrenophora teres = experiment: Activity against net blotch of barley caused by Pyrenophora teres; details: barley seedlings "Igri", inoculated 24 h after spraying, 6 days
Procedure, shortened: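 Disease was read as visually estimated % infection of total leaf area 6 days after inoculation (greenhouse, 20-24° C, 95-100% humidity). Seedlings of cultivar Igri had been sprayed to runoff point with diluted compound emulsion and inoculated with a P. teres spore suspension 24 h later.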

Puccinia recondita = experiment: Curative activity against brown rust of wheat caused by Puccinia recondita; details: curative spray 24 h after inoculation, wheat seedlings "Kanzler", 7 days
Procedure, shortened: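 Wheat seedlings (cv. Kanzler) inoculated with brown rust spores and held 24 h at 90–95% humidity and 20–22°C, then sprayed to runoff with the emulsified compound the next day. Rust development on leaves scored after 7 days in greenhouse at 20–22°C and 65–70% relative humidity.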

SMILES | % infection of the leaves after application of an aqueous preparation comprising . . . ppm of active compound (Septoria tritici; 16 ppm) [%] | % infection of the leaves after application of an aqueous preparation comprising . . . ppm of active compound (Septoria tritici; 63 ppm) [%] | % infection of the leaves after application of an aqueous preparation comprising . . . ppm of active compound (Septoria tritici; 250 ppm) [%] | % infection of the leaves after application of an aqueous preparation comprising . . . ppm of active compound ([1]; 16 ppm) [%] | % infection of the leaves after application of an aqueous preparation comprising . . . ppm of active compound ([1]; 63 ppm) [%] | % infection of the leaves after application of an aqueous preparation comprising . . . ppm of active compound ([1]; 250 ppm) [%] | % infection of the leaves after application of an aqueous preparation comprising . . . ppm of active compound (Pyrenophora teres; 16 ppm) [%] | % infection of the leaves after application of an aqueous preparation comprising . . . ppm of active compound (Pyrenophora teres; 63 ppm) [%] | % infection of the leaves after application of an aqueous preparation comprising . . . ppm of active compound (Puccinia recondita; 250 ppm) [%] | % infection of the leaves after application of an aqueous preparation comprising . . . ppm of active compound (Puccinia recondita; 16 ppm) [%] | % infection of the leaves after application of an aqueous preparation comprising . . . ppm of active compound (Puccinia recondita; 63 ppm) [%] | % infection of the leaves after application of an aqueous preparation comprising . . . ppm of active compound (Pyrenophora teres; 250 ppm) [%]
CC(Nc1c(-c2ccccc2Cl)c(Cl)nc2ncnn12)C(C)(C)C (single isomer, unassigned) [I.-44a] | 60 | 7 | 7 | 50 | 30 | 30 | 60 | 7 | 60 |  |  | 
CC(C)[C@@H](C)Nc1c(-c2c(F)cccc2Cl)c(Cl)nc2ncnn12 [I.-2] | 0 | 0 | 0 |  | 40 | 40 |  |  | 5 | 15 | 5 | 
CCC(C)Nc1c(-c2c(F)cccc2F)c(Cl)nc2ncnn12 (centres unmarked) [I.-4] | 20 | 15 | 3 | 80 | 60 | 60 |  |  | 10 | 40 | 20 | 
CC(C)C(C)Nc1c(-c2c(F)cccc2F)c(Cl)nc2ncnn12 (centres unmarked) [I.-5] | 15 | 15 | 15 | 40 | 40 | 20 | 20 |  | 10 |  | 10 | 
CCC(C)Nc1c(-c2c(Cl)cccc2Cl)c(Cl)nc2ncnn12 (centres unmarked) [I.-7] | 70 | 30 | 15 |  |  | 60 | 80 | 30 |  | 40 |  | 15
CC[C@@H](C)Nc1c(-c2c(F)cc(OC)cc2F)c(Cl)nc2ncnn12 [I.-16] |  | 70 | 70 | 40 | 40 | 20 |  |  |  | 7 | 0 | 
CC(C)[C@@H](C)Nc1c(-c2c(F)c(F)c(F)c(F)c2F)c(Cl)nc2ncnn12 [I.-20] | 10 | 10 | 10 | 30 | 20 | 5 | 30 | 10 |  |  |  | 0
CC(C)C(C)Nc1c(-c2c(F)cccc2Cl)c(Cl)nc2ncnn12 [comparison (S)-amine of I.-2] | 90 | 90 | 90 |  | 100 | 100 |  |  | 100 | 100 | 100 | 
CC[C@H](C)Nc1c(-c2c(F)cccc2F)c(Cl)nc2ncnn12 [comparison (S)-amine of I.-4] | 100 | 100 | 90 | 100 | 100 | 100 |  |  | 100 | 100 | 100 | 
CC[C@H](C)Nc1c(-c2c(F)cc(OC)cc2F)c(Cl)nc2ncnn12 [comparison (S)-amine of I.-16] |  | 90 | 90 | 100 | 100 | 100 |  |  |  | 100 | 5 | 
CC[C@H](C)Nc1c(-c2c(F)c(F)c(F)c(F)c2F)c(Cl)nc2ncnn12 [comparison (S)-amine of I.-19] | 90 | 90 | 90 |  | 30 | 30 |  |  |  |  |  | 80
CC(C)[C@H](C)Nc1c(-c2c(F)c(F)c(F)c(F)c2F)c(Cl)nc2ncnn12 [comparison (S)-amine of I.-20] | 90 | 90 | 90 | 80 | 40 | 40 | 100 | 40 |  |  |  | 7
